Data reported in patent publication US9725445B2, “Cycloalkyl nitrile pyrazolo pyridones as Janus kinase inhibitors” (Merck Sharp & Dohme Corp., priority 2013, dated 2017).
pIC50: −log10 of the molar value. Like-named read-outs stand apart in the source and are kept apart here.

What was measured:
[1] = target: JAK1 (Homo sapiens (Human), UniProt P23458); assay: Jak biochemical HTRF assay, JAK1; settings: recombinant GST-tagged catalytic domain
[2] = target: JAK2 (Homo sapiens (Human), UniProt O60674); assay: Jak biochemical HTRF assay, JAK2; settings: recombinant GST-tagged catalytic domain
[3] = HTRF biochemical assay, read-out: JAK1 IC50
[4] = HTRF biochemical assay, read-out: JAK2 IC50

JAK1, sequence (P23458 875-1153): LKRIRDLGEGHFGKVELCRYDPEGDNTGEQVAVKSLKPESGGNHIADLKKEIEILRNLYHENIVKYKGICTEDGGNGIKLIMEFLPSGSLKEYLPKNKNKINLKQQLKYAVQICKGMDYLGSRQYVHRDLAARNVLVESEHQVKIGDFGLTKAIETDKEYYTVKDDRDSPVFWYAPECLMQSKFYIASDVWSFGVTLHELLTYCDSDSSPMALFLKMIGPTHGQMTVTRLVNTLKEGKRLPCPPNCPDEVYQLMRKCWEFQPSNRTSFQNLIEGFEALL
JAK2, sequence (O60674 849-1124): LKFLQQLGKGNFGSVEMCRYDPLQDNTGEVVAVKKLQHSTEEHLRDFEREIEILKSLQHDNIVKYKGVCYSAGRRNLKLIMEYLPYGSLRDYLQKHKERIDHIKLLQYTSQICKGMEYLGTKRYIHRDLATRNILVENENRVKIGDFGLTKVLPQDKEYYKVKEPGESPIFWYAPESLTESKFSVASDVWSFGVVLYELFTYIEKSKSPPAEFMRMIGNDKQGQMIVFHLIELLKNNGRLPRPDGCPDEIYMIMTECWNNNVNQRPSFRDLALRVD

SMILES	pIC50 [1, 3]	pIC50 [2, 4]	pIC50 ([1]; JAK1 IC50, HTRF biochemical assay)	pIC50 ([2]; JAK2 IC50, HTRF biochemical assay)
N#C[C@H]1CCCC[C@@H]1n1nc(Nc2ccc3c(c2)CN(C2CCCC2)C3=O)c2c(=O)[nH]ccc21 [Example 3-154, (1S,2S)-2-{3-[(2-cyclopentyl-1-oxo-2,3-dihydro-1H-isoindol-5-yl)amino]-4-oxo-4,5-dihydro-1H-pyrazolo[4,3-c]pyridin-1-yl}cyclohexanecarbonitrile]	10.25	9.35	–	–
C[C@H](NC1CCC(n2nc(Nc3ccc(Cl)cc3)c3c(=O)[nH]ccc32)C(C#N)C1)C1CC1 (stereo in doubt) [Example 4-3, (1R,2R,5R)-2-(3-((4-Chlorophenyl)amino)-4-oxo-4,5-dihydro-1H-pyrazolo[4,3-c]pyridin-1-yl)-5-(((S)-1-cyclopropylethyl)amino)cyclohexanecarbonitrile]	9.52	7.89	–	–
N#C[C@H]1C[C@@H](N2CCC2)CC[C@@H]1n1nc(Nc2ccc(Cl)c(F)c2)c2c(=O)[nH]ccc21 [Example 5-4, (1S,2S,5S)-5-(azetidin-1-yl)-2-(3-((4-chloro-3-fluorophenyl)amino)-4-oxo-4,5-dihydro-1H-pyrazolo[4,3-c]pyridin-1-yl)cyclohexanecarbonitrile]	8.77	7.51	–	–
CC(C)(C)OC(=O)[C@H]1CC[C@@H](N2Cc3cc(Nc4nn([C@H]5CCCC[C@@H]5C#N)c5cc[nH]c(=O)c45)ccc3S2(=O)=O)CC1 [Example 15-43, (1S,4S)-tert-butyl 4-(5-((1-((1S,2S)-2-cyanocyclohexyl)-4-oxo-4,5-dihydro-1H-pyrazolo[4,3-c]pyridin-3-yl)amino)-1,1-dioxidobenzo[d]isothiazol-2(3H)-yl)cyclohexanecarboxylate]	9.66	8.92	–	–
Cc1cc(Nc2nn([C@H]3CCCC[C@@H]3C#N)c3cc[nH]c(=O)c23)ccc1C(=O)N1CCOCC1 [Example 3-68, (1S,2S)-2-(3-{[3-methyl-4-(morpholin-4-ylcarbonyl)phenyl]amino}-4-oxo-4,5-dihydro-1H-pyrazolo[4,3-c]pyridin-1-yl)cyclohexanecarbonitrile]	9.33	9.55	–	–
N#C[C@H]1CCCC[C@@H]1n1nc(Nc2ccc(S(N)(=O)=O)cc2)c2c(=O)[nH]ccc21 [Example 3-7, 4-({1-[(1S,2S)-2-cyanocyclohexyl]-4-oxo-4,5-dihydro-1H-pyrazolo[4,3-c]pyridin-3-yl}amino)benzenesulfonamide]	9.96	9.07	–	–
Cc1cn(Cc2cccc(Nc3nn([C@H]4CCCC[C@@H]4C#N)c4cc[nH]c(=O)c34)c2)nn1 [Example 3-37, (1S,2S)-2-[3-({3-[(4-methyl-1H-1,2,3-triazol-1-yl)methyl]phenyl}amino)-4-oxo-4,5-dihydro-1H-pyrazolo[4,3-c]pyridin-1-yl]cyclohexanecarbonitrile]	9.74	8.68	–	–
N#C[C@H]1CCCC[C@@H]1n1nc(Nc2ccc(S(=O)(=O)N3CCOCC3)cc2)c2c(=O)[nH]ccc21 [Example 3-24, (1S,2S)-2-(3-{[4-(morpholin-4-ylsulfonyl)phenyl]amino}-4-oxo-4,5-dihydro-1H-pyrazolo[4,3-c]pyridin-1-yl)cyclohexanecarbonitrile]	9.82	9.33	–	–
CN(C)[C@@H]1CC[C@H](n2nc(Nc3ccc(Cl)c(F)c3)c3c(=O)[nH]ccc32)[C@@H](C#N)C1 [Example 5-1, (1S,2S,5R)-2-(3-((4-Chloro-3-fluorophenyl)amino)-4-oxo-4,5-dihydro-1H-pyrazolo[4,3-c]pyridin-1-yl)-5-(dimethylamino)cyclohexanecarbonitrile]	8.82	7.72	–	–
Cc1cc(Nc2nn([C@H]3CCCC[C@@H]3C#N)c3cc[nH]c(=O)c23)ccc1-c1cnn(CCC#N)c1 [Example 15-18, (1S,2S)-2-[3-({4-[1-(2-cyanoethyl)-1H-pyrazol-4-yl]-3-methylphenyl}amino)-4-oxo-4,5-dihydro-1H-pyrazolo[4,3-c]pyridin-1-yl]cyclohexanecarbonitrile]	9.77	8.64	–	–
N#C[C@H]1CCCC[C@@H]1n1nc(Nc2ccc(-c3nccs3)cc2)c2c(=O)[nH]ccc21 [Example 15-2, (1S,2S)-2-(4-oxo-3-{[4-(1,3-thiazol-2-yl)phenyl]amino}-4,5-dihydro-1H-pyrazolo[4,3-c]pyridin-1-yl)cyclohexanecarbonitrile]	9.59	8.44	–	–
N#CCCn1cc(-c2ccc(Nc3nn([C@H]4CCCC[C@@H]4C#N)c4cc[nH]c(=O)c34)cc2)cn1 [Example 15-14, (1S,2S)-2-[3-({4-[1-(2-cyanoethyl)-1H-pyrazol-4-yl]phenyl}amino)-4-oxo-4,5-dihydro-1H-pyrazolo[4,3-c]pyridin-1-yl]cyclohexanecarbonitrile]	10.19	8.96	–	–
CC(C)N1Cc2ccc(Nc3nn([C@H]4CCCC[C@@H]4C#N)c4cc[nH]c(=O)c34)cc2C1 [Example 3-74, (1S,2S)-2-(3-{[2-(1-methylethyl)-2,3-dihydro-1H-isoindol-5-yl]amino}-4-oxo-4,5-dihydro-1H-pyrazolo[4,3-c]pyridin-1-yl)cyclohexanecarbonitrile]	9.85	9.54	–	–
CC(O)c1cccc(Nc2nn([C@H]3CCCC[C@@H]3C#N)c3cc[nH]c(=O)c23)c1 (stereo partly drawn) [Example 3-31, (1S,2S)-2-(3-{[3-(1-hydroxyethyl)phenyl]amino}-4-oxo-4,5-dihydro-1H-pyrazolo[4,3-c]pyridin-1-yl)cyclohexanecarbonitrile]	9.34	8.77	–	–
N#C[C@H]1CCCC[C@@H]1n1nc(Nc2ccc3c(c2)CNC3)c2c(=O)[nH]ccc21 [Example 12-1, (1S,2S)-2-(3-(Isoindolin-5-ylamino)-4-oxo-4,5-dihydro-H-pyrazolo[4,3-c]pyridin-1-yl)cyclohexanecarbonitrile]	9.51	9.07	–	–
N#C[C@H]1CCCC[C@@H]1n1nc(Nc2ccc(C(O)C(F)(F)F)cc2)c2c(=O)[nH]ccc21 (single isomer, unassigned) [Example 3-8]	9.89	9.09	–	–
N#C[C@H]1CCCC[C@@H]1n1nc(Nc2ccc(S(=O)(=O)NC3CCCCC3)cc2)c2c(=O)[nH]ccc21 [Example 3-22, 4-({1-[(1S,2S)-2-cyanocyclohexyl]-4-oxo-4,5-dihydro-1H-pyrazolo[4,3-c]pyridin-3-yl}amino)-N-cyclohexylbenzenesulfonamide]	9.40	8.92	–	–
Cc1cc(Nc2nn([C@@H]3CCCCC[C@H]3C#N)c3cc[nH]c(=O)c23)ccc1C(=O)N1CCCC1 (single isomer, unassigned) [Example 15-45, (1R,2R or 1S,2S)-2-(3-{[3-methyl-4-(pyrrolidin-1-ylcarbonyl)phenyl]amino}-4-oxo-4,5-dihydro-1H-pyrazolo[4,3-c]pyridin-1-yl)cycloheptanecarbonitrile]	9.37	9.39	–	–
CC(C)N1Cc2cc(Nc3nn([C@H]4CCCC[C@@H]4C#N)c4cc[nH]c(=O)c34)ccc2S1(=O)=O [Example 3-79, (1S,2S)-2-(3-{[2-(1-methylethyl)-1,1-dioxido-2,3-dihydro-1,2-benzisothiazol-5-yl]amino}-4-oxo-4,5-dihydro-1H-pyrazolo[4,3-c]pyridin-1-yl)cyclohexanecarbonitrile]	10.15	9.32	–	–
Cn1cc(-c2ccc(Nc3nn([C@H]4CCCC[C@@H]4C#N)c4cc[nH]c(=O)c34)cc2Cl)cn1 [Example 3-146, (1S,2S)-2-(3-{[3-chloro-4-(1-methyl-1H-pyrazol-4-yl)phenyl]amino}-4-oxo-4,5-dihydro-1H-pyrazolo[4,3-c]pyridin-1-yl)cyclohexanecarbonitrile]	9.54	8.19	–	–
CC(C)(C)OC(=O)N1[C@@H]2CC[C@H]1C[C@H](c1ccc(Nc3nn([C@H]4CCCC[C@@H]4C#N)c4cc[nH]c(=O)c34)cc1)C2 (single isomer, unassigned) [Example 3-166]	–	–	9.02	8.19
N#C[C@H]1CCCC[C@@H]1n1nc(Nc2ccc3c(c2)CNS3(=O)=O)c2c(=O)[nH]ccc21 [Example 3-54, (1S,2S)-2-{3-[(1,1-dioxido-2,3-dihydro-1,2-benzisothiazol-5-yl)amino]-4-oxo-4,5-dihydro-1H-pyrazolo[4,3-c]pyridin-1-yl}cyclohexanecarbonitrile]	10.29	9.21	–	–
N#C[C@H]1CCCC[C@@H]1n1nc(Nc2ccc(-c3ncno3)cc2)c2c(=O)[nH]ccc21 [Example 15-6, (1S,2S)-2-(3-{[4-(1,2,4-oxadiazol-5-yl)phenyl]amino}-4-oxo-4,5-dihydro-1H-pyrazolo[4,3-c]pyridin-1-yl)cyclohexanecarbonitrile]	9.26	8.44	–	–
CC1(c2ccc(Nc3nn([C@H]4CCCC[C@@H]4C#N)c4cc[nH]c(=O)c34)cc2)COC1 [Example 15-13, (1S,2S)-2-(3-{[4-(3-methyloxetan-3-yl)phenyl]amino}-4-oxo-4,5-dihydro-1H-pyrazolo[4,3-c]pyridin-1-yl)cyclohexanecarbonitrile]	9.66	9.14	–	–
